Results taken from US4232017A, “Treatment of psychic disorders and inflammation with fused isoquinolines” (Gruppo Lepetit S.p.A., priority 1978, dated 1980).
Read-outs that look alike come from different tables or passages of the source.

How the values were obtained:
[1] = Acute toxicity (LD50) in mice, i.p.; conditions: mouse, in vivo, ip
Procedure: (§1) Moreover, they display a considerably low toxicity as, generally, their LD50 values are never lower than 600 mg/Kg when given i.p. and never lower than 1000 mg/Kg when given orally to mice.

rats = assay: pole climbing avoidance test (antianxiety activity; Maffii); format: in vivo; conditions: for responders at 60 mg/kg / responders at 10 mg/kg / responders at 30 mg/kg / responders at 15 mg/kg: Rattus norvegicus, ip; for responders at 60 mg/kg: 60 mg/Kg i.p.; for responders at 10 mg/kg: 10 mg/Kg i.p.; for responders at 30 mg/kg: 30 mg/Kg i.p.; for influence on the CR and the UR: i.p., about 15 to about 60 mg/Kg; for responders at 15 mg/kg: 15 mg/Kg i.p.
Source text: The CNS-depressant activity in mammals was investigated by means of the general psychophysic screening method, as described by S. Irwin in Psychopharmacologia (Berl.), 13, 222-257, 1968. […] It is to be noted that the above parameters are directly connected with sedative, hypnotic and miorelaxing properties. The antianxiety activity of the compounds of the invention was investigated by means of the "pole climbing avoidance test", performed as described by G. Maffii in Journ. Pharm. Pharmacol., 11, 129, 1959, wherein a conditioned animal (generally a rat) is deconditioned i.e., is brought to its normal psychic behavior by administration of a suitable amount of the compound to be tested. According to G. Maffii, an inhibition of the secondary conditioned response (CR2) without a contemporary or coupled with a not significant inhibition of the primary conditioned response (CR) and the unconditioned response (UR) is a clear indication of an antianxiety effect since these last two parameters are connected with sedative and hypnotic properties.

[2] = test system: carrageenin induced edema in rats; assay: carrageenin induced edema test (Winter et al.); format: in vivo; conditions: for significant reduction of the edema over the control: oral, about 1/5 to about 1/10 of the LD50
Procedure: As stated above, the compounds of the invention show also a remarkable antiinflammatory action, which was ascertained by means of the "carrageenin induced edema test" in rats. Said test was performed according to the operative scheme proposed by C. A. Winter et al., Proc., Soc. Exptl.

[3] = Acute toxicity (LD50) in mice, oral; conditions: mouse, in vivo, p.o.
Procedure: as §1

[4] = read-out: CR2 (secondary conditioned response), Decond./Conditioned
[5] = read-out: CR (primary conditioned response), Decond./Conditioned
[6] = read-out: UR (unconditioned response), Decond./Conditioned

Row | SMILES | LD50 [1] [mg/kg] | responders at 60 mg/kg (rats; [4]) [%] | responders at 60 mg/kg (rats; [5]) [%] | responders at 60 mg/kg (rats; [6]) [%] | responders at 10 mg/kg (rats; [4]) [%] | responders at 10 mg/kg (rats; [5]) [%] | responders at 10 mg/kg (rats; [6]) [%] | responders at 30 mg/kg (rats; [4]) [%] | responders at 30 mg/kg (rats; [5]) [%] | responders at 30 mg/kg (rats; [6]) [%] | influence on the CR and the UR (rats) | responders at 15 mg/kg (rats; [4]) [%] | responders at 15 mg/kg (rats; [5]) [%] | responders at 15 mg/kg (rats; [6]) [%] | % Decrease of the induced edema ([2]; 50 mg/kg p.o.) [%] | % Decrease of the induced edema ([2]; 100 mg/kg p.o.) [%] | % Decrease of the induced edema ([2]; 200 mg/kg p.o.) [%] | significant reduction of the edema over the control [2] [%] | LD50 [3] [mg/kg] | % Decrease of the induced edema ([2]; 20 mg/kg p.o.) [%]
1 | CCCCOc1nc2sc(C)nc2c2ccccc12 [5(O-isomer), 5-butoxy-2-methyl-thiazolo[5,4-c]isoquinoline] | 600 | 50 | 0 | 0 | – | – | – | – | – | – | – | – | – | – | – | – | – | – | – | –
2 | Cc1nn(C)c2nc(OCCO)c3ccccc3c12 [Example 20, 5-(2-Hydroxyethoxy)-1,3-dimethyl-3H-pyrazolo[3,4-c]isoquinoline] | > 600 | 90 | 30 | 0 | 60 | 10 | 0 | 70 | 30 | 0 | practically no influence | – | – | – | – | – | – | – | – | –
3 | CCc1nn(C)c2nc(OCCO)c3ccccc3c12 [Example 25, 1-Ethyl-5-hydroxyethoxy-3-methyl-3H-pyrazolo[3,4-c]isoquinoline] | > 600 | 70 | 0 | 0 | – | – | – | 50 | 0 | 0 | practically no influence | – | – | – | – | – | – | – | – | –
4 | CCn1c(=O)c2ccccc2c2nc(C)sc21 [Example 2(N-isomer), 4-Ethyl-2-methyl-thiazolo[5,4-c]isoquinoline-5(4H)-one] | 400 | – | – | – | – | – | – | 80 | 0 | 0 | practically no influence | 50 | 0 | 0 | – | – | – | – | – | –
5 | CCCCn1c(=O)c2ccccc2c2nc(C)sc21 [5(N-isomer), 4-Butyl-2-methyl-thiazolo[5,4-c]isoquinoline-5(4H)-one] | 600 | 50 | 0 | 0 | – | – | – | – | – | – | – | – | – | – | 28 | 37 | 51 | ≥ 40 | > 1000 | –
6 | Cc1nc2c3ccccc3c(=O)n(C)c2s1 [Example 1, 2,4-Dimethyl-thiazolo[5,4-c]isoquinoline-5(4H)-one] | – | – | – | – | – | – | – | – | – | – | – | – | – | – | 38 | 46 | 61 | ≥ 40 | > 1000 | 25
7 | CCc1nc2c3ccccc3c(=O)n(C)c2s1 [Example 9, 2-Ethyl-4-methyl-thiazolo[5,4-c]isoquinoline-5(4H)-one] | – | – | – | – | – | – | – | – | – | – | – | – | – | – | 25 | 31 | 40 | ≥ 40 | 1000 | –
8 | CCCCOc1nc2c(c(C)nn2C)c2ccccc12 [Example 24, 5-Butoxy-1,3-dimethyl-3H-pyrazolo[3,4-c]isoquinoline] | > 600 | 100 | 30 | 0 | – | – | – | 60 | 0 | 0 | practically no influence | – | – | – | 26 | 38 | 45 | ≥ 40 | 1000 | –
9 | Cc1nn(C)c2c1c1ccccc1c(=O)n2CCN1CCN(c2ccccc2)CC1.Cl [Example 38, 1,3-Dimethyl-4-[2-(4-phenyl-1-piperazinyl)ethyl]-3H-pyrazolo[3,4-c]isoquinoline-5(4H)-one hydrochloride] | > 600 | 100 | 40 | 0 | – | – | – | 90 | 10 | 0 | practically no influence | – | – | – | – | – | – | – | – | –
10 | CCc1nn(C)c2nc(OCC(C)=O)c3ccccc3c12 [Example 26, 5-Acetylmethoxy-1-ethyl-3-methyl-3H-pyrazolo[3,4-c]isoquinoline] | > 600 | 100 | 0 | 0 | – | – | – | 50 | 0 | 0 | practically no influence | – | – | – | 30 | 37 | 43 | ≥ 40 | > 1000 | –
